# According to patent JPH07501070A, “3−ピリジノール誘導体およびその医薬的使用” (スミスクライン・ビーチャム・パブリック・リミテッド・カンパニー, priority 1991, dated 1993):
# pIC50: −log10 of the molar value.
# Test system: guinea pig trachea [モルモット・気管]
# Assay: Bronchodilation in vitro (spontaneous tension of tracheal spirals)
# Details: Cavia porcellus, Krebs solution, cumulative addition, read-out: IC50 (concentration inhibiting spontaneously generated tension by 50%)
compound,measurement,value
"CCOP(=O)(O)c1ncc(-c2ccc3ccccc3c2)cc1O [実施例1, [5−(2−ナフチル)−3−ヒドロキシ−2−ピリジル]ホスホン酸エチル]",pIC50,4.00
